Data taken from patent US12384789B2, “Compounds for treating Huntington's disease” (PTC Therapeutics, Inc., priority 2017, dated 2025).

tested on: Endogenous Huntingtin Protein; experiment: Endogenous Huntingtin Protein Assay (Meso Scale Discovery ELISA-based electrochemiluminescence); type: cell-based; conditions: MSD electrochemiluminescence, Table 1
Description: Compounds of Formula (I) were tested using the Meso Scale Discovery (MSD) Assay provided in International Application No. PCT/US2016/066042, filed on Dec. 11, 2016 and claiming priority to United States Provisional Application U.S. 62/265,652 filed on Dec. 10, 2015, the entire contents of which are incorporated herein by reference.
The Endogenous Huntingtin Protein assay used in Example 1 was developed using the ELISA-based MSD electrochemiluminescence assay platform.
Endogenous Huntingtin Protein Assay
Meso Scale Discovery (MSD) 96-well or 384-well plates were coated overnight at 4° C. with MW1 (expanded polyglutamine) or MAB2166 monoclonal antibody (for capture) at a concentration of 1 μg/mL in PBS (30 μL per well). Plates were then washed three times with 300 μL wash buffer (0.05% Tween-20 in PBS) and blocked (100 μL blocking buffer; 5% BSA in PBS) for 4-5 hours at room temperature with rotational shaking and then washed three times with wash buffer.
Samples (25 μL) were transferred to the antibody-coated MSD plate and incubated overnight at 4° C. After removal of the lysates, the plate was washed three times with wash buffer, and 25 μL of #5656S (Cell signaling; rabbit monoclonal) secondary antibody (diluted to 0.25 μg/mL in 0.05% Tween-20 in blocking buffer) was added to each well and incubated with shaking for 1 Hour at room temperature. Following incubation with the secondary antibody, the wells were rinsed with wash buffer after which 25 μL of goat anti-rabbit SULFO TAG secondary detection antibody (required aspect of the MSD system) (diluted to 0.25 μg/mL in 0.05% Tween-20 in blocking buffer) was added to each well and incubated with shaking for 1 hour at room temperature. After rinsing three times with wash buffer, 150 μL of read buffer T with surfactant (MSD) were added to each empty well, and the plate was imaged on a SI 6000 imager (MSD) according to manufacturers' instructions provided for 96- or 384-well plates.

Compound | IC50
CCN1CCC(c2cc3c(F)cc(-c4nc5c(C)nc(C)cc5o4)cc3nn2)CC1 [Compound 136, 7-(4,6-dimethyl[1,3]oxazolo[4,5-c]pyridin-2-yl)-3-(1-ethylpiperidin-4-yl)-5-fluorocinnoline] | ≤ 100 nM
Cc1cn2nc(-c3cc(F)c4cc(C5CC6CC[C@@H](C5)N6)nnc4c3)cc(C)c2n1 (stereo partly drawn) [Compound 169, 3-[(1R,3r,5S)-8-azabicyclo[3.2.1]octan-3-yl]-7-(2,8-dimethylimidazo[1,2-b]pyridazin-6-yl)-5-fluorocinnoline] | ≤ 100 nM
Cc1cc(-c2ccc3nc(C4CC(C)(C)NC(C)(C)C4)ccc3c2)cc2cn(C)nc12 [Compound 14, 6-(2,7-dimethyl-2H-indazol-5-yl)-2-(2,2,6,6-tetramethylpiperidin-4-yl)quinoline] | 100 to 500 nM
Cc1cc(-c2cc(F)c3nc(C4CCNCC4)ccc3c2)cc2cn(C)nc12 [Compound 20, 6-(2,7-dimethyl-2H-indazol-5-yl)-8-fluoro-2-(piperidin-4-yl)quinoline] | ≤ 100 nM
Cc1cc(-c2cnc3cc(C4CCNCC4)ccc3c2)cc2cn(C)nc12 [Compound 29, 3-(2,7-dimethyl-2H-indazol-5-yl)-7-(piperidin-4-yl)quinoline] | 1000 to 3000 nM
Cn1cc2cc(-c3cc(F)c4cc(C5CCNCC5)nnc4c3)c(F)cc2n1 [Compound 97, 5-fluoro-7-(6-fluoro-2-methyl-2H-indazol-5-yl)-3-(piperidin-4-yl)cinnoline] | 500 to 1000 nM
Cc1cc(-c2nnc3cc(C4CCNCC4)ccc3n2)cc2cn(C)nc12 [Compound 17, 3-(2,7-dimethyl-2H-indazol-5-yl)-7-(piperidin-4-yl)-1,2,4-benzotriazine] | ≤ 100 nM

Second part, the molecule after the results:

IC50 | Compound
500 to 1000 nM | Cc1cc(-c2cc3c(F)cc([C@@]4(O)CCNC[C@@H]4O)cc3nn2)cc2cn(C)nc12 [Compound 203, (3S,4S)-4-[3-(2,7-dimethyl-2H-indazol-5-yl)-5-fluorocinnolin-7-yl]piperidine-3,4-diol]
≤ 100 nM | Cc1cc(-c2cc3c(F)cc(C4CCNCC4)cc3nn2)cc2cn(C)nc12 [Compound 177, 3-(2,7-dimethyl-2H-indazol-5-yl)-5-fluoro-7-(piperidin-4-yl)cinnoline]
≤ 100 nM | Cc1cn2nc(-c3cc(F)c4cc(C5CCNCC5)nnc4c3)cc(OCCn3cccn3)c2n1 [Compound 140, 5-fluoro-7-{2-methyl-8-[2-(1H-pyrazol-1-yl)ethoxy]imidazo[1,2-b]pyridazin-6-yl}-3-(piperidin-4-yl)cinnoline]
100 to 500 nM | Cc1cc2cc(-c3cc(F)c4nc(C5CCNCC5)nnc4c3)cc(C)n2n1 [Compound 65, 7-(2,7-dimethylpyrazolo[1,5-a]pyridin-5-yl)-5-fluoro-3-(piperidin-4-yl)-1,2,4-benzotriazine]
≤ 100 nM | CC[C@H]1CC(c2cc3c(F)cc(-c4cc(C)c5nc(C)cn5n4)cc3nn2)C[C@H](CC)N1 (stereo partly drawn) [Compound 130, 3-[(2S,6S)-2,6-diethylpiperidin-4-yl]-7-(2,8-dimethylimidazo[1,2-b]pyridazin-6-yl)-5-fluorocinnoline]
100 to 500 nM | Cc1cn2nc(-c3cc(F)c4cc(C5CCNCC5)nnc4c3)cc(OCCN(C)C)c2n1 [Compound 138, 2-({6-[5-fluoro-3-(piperidin-4-yl)cinnolin-7-yl]-2-methylimidazo[1,2-b]pyridazin-8-yl}oxy)-N,N-dimethylethan-1-amine]
≤ 100 nM | Cc1cn2nc(-c3cc(F)c4cc(N5CCC6(CC5)CNC6)nnc4c3)cc(C)c2n1 [Compound 219, 3-(2,7-diazaspiro[3.5]nonan-7-yl)-7-(2,8-dimethylimidazo[1,2-b]pyridazin-6-yl)-5-fluorocinnoline]
≤ 100 nM | Cc1cn2nc(-c3cc(F)c4nc(C5CCNCC5)cnc4c3)cc(C)c2n1 [Compound 82, 6-(2,8-dimethylimidazo[1,2-b]pyridazin-6-yl)-8-fluoro-2-(piperidin-4-yl)quinoxaline]
100 to 500 nM | Cc1cc2oc(-c3cc(F)c4cc(C5CCN(C)CC5)nnc4c3)nc2c(C)n1 [Compound 214, 7-(4,6-dimethyl[1,3]oxazolo[4,5-c]pyridin-2-yl)-5-fluoro-3-(1-methylpiperidin-4-yl)cinnoline]
